Reference: ChEMBL document CHEMBL1268896, “Development of the next generation of HIV-1 integrase inhibitors: pyrazolone as a novel inhibitor scaffold” (Bioorg Med Chem Lett, 2010)

Legend:
[1] = target: T1, Human immunodeficiency virus type 1 integrase (Human immunodeficiency virus 1, UniProt Q7ZJM1); experiment: Inhibition of HIV1 integrase strand transfer activity
[2] = target: T1, Human immunodeficiency virus type 1 integrase; experiment: Inhibition of HIV1 integrase 3' processing activity

T1 sequence (Q7ZJM1 whole entry): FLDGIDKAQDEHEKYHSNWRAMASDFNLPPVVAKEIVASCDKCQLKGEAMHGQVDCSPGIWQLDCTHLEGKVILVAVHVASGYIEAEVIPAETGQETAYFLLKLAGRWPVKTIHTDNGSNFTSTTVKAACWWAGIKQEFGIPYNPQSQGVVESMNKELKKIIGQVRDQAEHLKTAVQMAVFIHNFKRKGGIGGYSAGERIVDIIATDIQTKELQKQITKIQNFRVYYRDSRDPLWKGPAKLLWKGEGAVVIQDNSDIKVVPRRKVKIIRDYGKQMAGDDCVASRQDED

## CCC(=O)OC1=NN(c2cccc(Br)c2)C(=O)/C1=C\c1ccc(OC)c(OCc2ccc(F)cc2)c1
[1]
  IC50: 88 µM
[2]
  IC50: > 100 µM

## COc1ccc(/C=C2\C(=O)N(c3cccc(Br)c3)N=C2C(=O)O)cc1OCc1ccc(F)cc1
[1]
  IC50: 19 µM
[2]
  IC50: 55 µM

## COc1ccc(/C=C2\C(=O)N(c3cccc([N+](=O)[O-])c3)N=C2C(=O)O)cc1Cc1ccc(F)cc1
[1]
  IC50: 11 µM
[2]
  IC50: 15 µM

## COc1ccc(/C=C2\C(=O)N(c3cccc([N+](=O)[O-])c3)N=C2C(=O)O)cc1OCc1ccc(F)cc1
[1]
  IC50: 14 µM
[2]
  IC50: 60 µM

## COc1ccc(/C=C2\C(=O)N(c3cccc(Br)c3)N=C2C(F)(F)F)cc1OC
[1]
  IC50: 34 µM
[2]
  IC50: 89 µM

## COc1ccc(/C=C2\C(=O)N(c3cccc(Br)c3)N=C2C(F)(F)F)c(OC)c1OC
[1]
  IC50: > 100 µM
[2]
  IC50: > 100 µM

## O=C(O)C1=NN(c2cccc([N+](=O)[O-])c2)C(=O)/C1=C\c1ccc(O)c(OCc2ccc(F)cc2)c1
[1]
  IC50: 10 µM
[2]
  IC50: 95 µM

## O=C(O)C1=NN(c2cccc([N+](=O)[O-])c2)C(=O)/C1=C\c1ccc(OCc2ccc(F)cc2)c(O)c1
[1]
  IC50: 3 µM
[2]
  IC50: 21 µM

## COc1cc(/C=C2\C(=O)N(c3cccc(Br)c3)N=C2C(F)(F)F)cc(OC)c1OC
[1]
  IC50: 15 µM
[2]
  IC50: 61 µM

## COc1ccc(/C=C2\C(=O)N(c3cccc(Br)c3)N=C2C(F)(F)F)cc1OCc1cccc(Cl)c1F
[1]
  IC50: 30 µM
[2]
  IC50: 50 µM

## COc1ccc(/C=C2\C(=O)N(c3cccc(Br)c3)N=C2C(F)(F)F)cc1OCc1ccc(F)cc1
[1]
  IC50: 40 µM
[2]
  IC50: 83 µM

## O=C1/C(=C\c2ccc(O)c(OCc3ccc(F)cc3)c2)C(C(F)(F)F)=NN1c1cccc(Br)c1
[1]
  IC50: 22 µM
[2]
  IC50: > 100 µM

## COc1ccc(/C=C2\C(=O)N(c3cccc(Br)c3)N=C2C(F)(F)F)cc1Cc1ccc(F)cc1
[1]
  IC50: 11 µM
[2]
  IC50: 21 µM

## COc1ccc(/C=C2\C(=O)N(c3ccccc3)N=C2C(F)(F)F)cc1OCc1ccc(F)cc1
[1]
  IC50: > 100 µM
[2]
  IC50: > 100 µM

## COc1ccc(/C=C2\C(=O)N(c3cccc(C)c3)N=C2C(F)(F)F)cc1OCc1ccc(F)cc1
[1]
  IC50: > 100 µM
[2]
  IC50: > 100 µM

## COc1ccc(/C=C2\C(=O)N(c3cccc(C(F)(F)F)c3)N=C2C(F)(F)F)cc1OCc1ccc(F)cc1
[1]
  IC50: 24 µM
[2]
  IC50: 90 µM

## COc1ccc(/C=C2\C(=O)N(c3cccc(-c4ccccc4)c3)N=C2C(F)(F)F)cc1OCc1ccc(F)cc1
[1]
  IC50: 16 µM
[2]
  IC50: > 100 µM

## COc1ccc(/C=C2\C(=O)N(c3cccc([N+](=O)[O-])c3)N=C2C(F)(F)F)cc1OCc1ccc(F)cc1
[1]
  IC50: 19 µM
[2]
  IC50: 52 µM

## COc1ccc(/C=C2\C(=O)N(c3cccc(F)c3)N=C2C(F)(F)F)cc1OCc1ccc(F)cc1
[1]
  IC50: 60 µM
[2]
  IC50: > 100 µM

## COc1ccc(/C=C2\C(=O)N(c3cccc(Cl)c3)N=C2C(F)(F)F)cc1OCc1ccc(F)cc1
[1]
  IC50: 30 µM
[2]
  IC50: 88 µM

## COc1ccc(/C=C2\C(=O)N(c3cccc(I)c3)N=C2C(F)(F)F)cc1OCc1ccc(F)cc1
[1]
  IC50: 35 µM
[2]
  IC50: > 100 µM

## COc1ccc(/C=C2\C(=O)N(c3cc(Cl)cc(Cl)c3)N=C2C(F)(F)F)cc1OCc1ccc(F)cc1
[1]
  IC50: 12 µM
[2]
  IC50: > 100 µM

## COc1ccc(/C=C2\C(=O)N(c3ccc(Br)cc3)N=C2C(F)(F)F)cc1OCc1ccc(F)cc1
[1]
  IC50: 25 µM
[2]
  IC50: 82 µM

## COc1ccc(/C=C2\C(=O)N(c3ccc(I)cc3)N=C2C(F)(F)F)cc1OCc1ccc(F)cc1
[1]
  IC50: 69 µM
[2]
  IC50: > 100 µM

## COc1ccc(/C=C2\C(=O)N(c3ccc(C(=O)O)cc3)N=C2C(F)(F)F)cc1OCc1ccc(F)cc1
[1]
  IC50: 41 µM
[2]
  IC50: > 100 µM

## COc1ccc(/C=C2\C(=O)N(c3ccc(NS(C)(=O)=O)cc3)N=C2C(F)(F)F)cc1OCc1ccc(F)cc1
[1]
  IC50: > 100 µM
[2]
  IC50: > 100 µM

## COc1ccc(/C=C2\C(=O)N(c3nc4ccccc4s3)N=C2C(F)(F)F)cc1OCc1ccc(F)cc1
[1]
  IC50: 27 µM
[2]
  IC50: > 100 µM

## COc1ccc(/C=C2\C(=O)N(c3cccc(Br)c3)N=C2C)cc1OCc1ccc(F)cc1
[1]
  IC50: > 100 µM
[2]
  IC50: > 100 µM

## CCC1=NN(c2cccc(Br)c2)C(=O)/C1=C\c1ccc(OC)c(OCc2ccc(F)cc2)c1
[1]
  IC50: > 100 µM
[2]
  IC50: > 100 µM

## COc1ccc(/C=C2\C(=O)N(c3cccc(Br)c3)N=C2NC(=O)C(F)(F)F)cc1OCc1ccc(F)cc1
[1]
  IC50: > 100 µM
[2]
  IC50: > 100 µM

## COc1ccc(/C=C2\C(=O)N(c3cccc(Br)c3)N=C2OC(C)=O)cc1OCc1ccc(F)cc1
[1]
  IC50: 100 µM
[2]
  IC50: > 100 µM

## COc1ccc(/C=C2\C(=O)N(c3cccc(Br)c3)N=C2COC(C)=O)cc1OCc1ccc(F)cc1
[1]
  IC50: 57 µM
[2]
  IC50: > 100 µM
